One experiment has as its system MCF7-ADR (resistant). Description: cells. In kind it is cell-based, human. The settings on record: for IC50: MCF7-ADR resistant cell line, in vitro; for MCF7-ADR/MCF7: ratio of IC50 in MCF7-ADR to IC50 in MCF-7.
The next experiment relates to MCF-7 (human breast). Description: cells. In kind it is cell-based. The note with it: MCF-7 human breast cell line, in vitro.

In general, IC50 refers to the concentration that gives 50% inhibition. A lower IC50 goes with inhibition by little substance. With `CCCCCC/C=C/C#CCCCCCCCC(=O)Oc1cc2c(c(OC)c1OC)-c1ccc(SC)c(=O)cc1C(NC(=O)C(F)(F)C(F)(F)F)CC2` (stereo not shown) [Compound II, N-deacetyl-N-pentafluoropropionyl-3-O-ximenoyl-thiocolchicine], in the experiment on MCF7-ADR (resistant), the IC50 was found to be 11 ± 1.9 nM and the MCF7-ADR/MCF7 came out at 2.2. The IC50 with MCF-7 (human breast) was 5 ± 0.2 nM.
For `COc1cc2c(c(OC)c1OC)-c1ccc(SC)c(=O)cc1[C@@H](NC(=O)C(F)(F)C(F)(F)F)CC2` [Compound I, N-deacetyl-N-pentafluoro-propionyl-thiocolchicine], the IC50 in the experiment on MCF7-ADR (resistant) (Homo sapiens, NCI/ADR-RES) was found to be 26 ± 2.3 nM; in the experiment with MCF-7 (human breast) (MCF7), 6.2 ± 0.4 nM. In addition, in the experiment with MCF7-ADR (resistant), the MCF7-ADR/MCF7 came to 4.2.
As to `COc1cc2c(c(OC)c1OC)-c1ccc(SC)c(=O)cc1[C@@H](NC(=O)C(F)(F)C(F)(F)C(F)(F)F)CC2` [Compound IV, N-deacetyl-N-heptafluorobutyroyl-thiocolchicine], the IC50 with MCF7-ADR (resistant) (Homo sapiens, NCI/ADR-RES) was determined as 31 ± 1.9 nM; in the experiment on MCF-7 (human breast) (MCF7), 3.2 ± 0.2 nM. For the same compound, the MCF7-ADR/MCF7 in the experiment on MCF7-ADR (resistant) was found to be 9.7.
In the same order, the values of `COc1c(OC2C=CCC2)cc2c(c1OC)-c1ccc(SC)c(=O)cc1[C@@H](NC(=O)C(F)(F)C(F)(F)F)CC2` (stereo partly shown) [Compound III, N-deacetyl-N-pentafluoropropionyl-3-O-demethyl-3-O-cyclopentenyl-thiocolchicine] are 7 ± 0.4 nM, 4.1 ± 0.3 nM and 1.7.
For the compound `COc1cc2c(c(OC)c1OC)-c1ccc(OC)c(=O)cc1[C@@H](NC(C)=O)CC2` [Colchicine, colchicine, reference compound], the MCF7-ADR/MCF7 in the experiment with MCF7-ADR (resistant) came to 25.45.
`CC(=O)O[C@H]1C(=O)[C@@]2(C)[C@H]([C@H](OC(=O)c3ccccc3)[C@]3(O)C[C@H](OC(=O)[C@H](O)[C@@H](NC(=O)c4ccccc4)c4ccccc4)C(C)=C1C3(C)C)[C@]1(OC(C)=O)CO[C@@H]1C[C@@H]2O` [Taxol, reference compound]: the IC50 in the experiment with MCF7-ADR (resistant) (Homo sapiens, NCI/ADR-RES) turned out to be 360 ± 7.8 nM; in the experiment on MCF-7 (human breast) (MCF7) it was 6.1 ± 0.3 nM. For the same compound, in the experiment on MCF7-ADR (resistant), the MCF7-ADR/MCF7 worked out at 59.01.

(Values after US5880160A (priority 1995, dated 1999).)
